Ends that are not written are not given here.
Legend:
OCCM30 cells = test: Cell differentiation of OCCM30 cells (ALP activity); format: cell-based, mouse; settings: DMEM containing 2% FBS; versus control (FIG. 11)
Description: As mouse-derived cementoblasts, cells of the OCCM30 cell strain (Bone, 1999 Jul., 25(1):39-47) were used. This cell strain was provided from Professor Somerman of School of Dentistry University of Washington.
As an index of cell differentiation, alkaline phosphatase (ALP) activity of cells was determined. Cells were inoculated in a 24-well culture plate at a ratio of 5×10^3 cells/well, added with the peptide (a) at various concentrations and cultured in DMEM or αMEM containing 2% FBS. One week after the time point when the cells reached a confluent state, ALP activity was determined by the following enzymochemical method (Bessey-Lowry method, Bessey O A, Lowry O H and Brock M J, A method for the rapid determination of alkaline phosphatase with five cubic millimeter of serum, J. Biol. Chem., 164:321-329, 1946).
The cultured cells were washed with PBS and then disrupted in 10 mM Tris-HCl buffer (pH 7.4, 500 μl) for 40 seconds by using an ultrasonic homogenizer (Handy Sonic model UR-20P, Tomy Seiko) and stirred. Then, 25 μl of this sample liquid was added to 125 μl of ALP buffer (0.1 M carbonate buffer, pH 9.8, 6.7 mM p-nitrophenyl phosphate, 2 mM MgCl2) and incubated at 37° C. for 30 minutes. The reaction was terminated by addition of 125 μl of 0.2 N NaOH, and absorbance was measured at 405 nm by using a microplate reader (Model 550, Bio-Rad Laboratories). […]

[1] = system: periodontal disease model; test: Periodontal disease model (histology of defect at first molar of the upper jaw); format: in vivo, Wistar rats; settings: one month after operation
Description: The following experiment was performed in order to examine action of the peptide of the present invention on a periodontal disease model. • (i) Preparation of Periodontal Disease Model 8-week old Wistar rats were systemically anesthetized with an ethyl carbamate solution in a volume of 0.5 ml per 100 g of body weight, and then the mesial gingiva of each first molar on the upper jaw was vertically incised. The gingival periosteal flap was reflected to expose the mesial alveolar bone of the first molar. Then, a defect having a length of about 2 mm and a buccolingual diameter of about 1 mm was formed from the alveolar bone crest of the same site towards the root apex side by using a fissure bur under pouring saline to expose the mesial root face of the first molar on the upper jaw. The root cementum and surface of dentin was removed together with the periodontal ligament attached to the exposed root face so as to make a shallow cavity. • (ii) Test Method At the aforementioned defect, a sample prepared with 1% PBS solution of sodium hyaluronate (weight average molecular weight: 900,000) was applied on the exposed root face, and the gingival periosteal flap was repositioned and sutured. By using a group of the animals applied with 1% PBS solution of sodium hyaluronate containing the peptide (a) (concentration of the peptide (a): 0.3 mg/ml) as the peptide group, a group of the animals applied with 1% PBS solution of sodium hyaluronate alone as the hyaluronic acid group, and a group of the animals applied with no substance before suture of the gingival periosteal flap for restoration as the control group, healing conditions were compared one month after the operation. The animals were euthanized with chloroform, and each experimental site was excised. The excised upper jaw bone was fixed by immersion in neutrally buffered formalin for 1 day and then decalcified over 2 days by using a rapid decalcifying solution (K-CX). The specimen was embedded in paraffin in a conventional manner, then a mesiodistal section having a thickness of […] and parallel to the longitudinal axis of the tooth root was prepared at the experiment site and stained with hematoxylin/eosin. Adhesion condition of periodontal tissue to the exposed surface of the tooth root at the defective site and the position of the apex of the alveolar bone were evaluated light microscopically. • (iii) Results (Findings)

[2] = system: Human-derived Periodontal Ligament Cells (PDL Cells); test: Cell growth of PDL cells (cell number by Coulter counter); format: cell-based; settings: peptide added at various concentrations to DMEM containing 2% FBS; counted on Days 4 and 6; versus control medium (FIG. 1, FIG. 2)
From the text: PDL cells were isolated from a healthy premolar carefully extracted from a patient who visited a hospital to extract teeth for orthodontic treatment so that periodontal ligament should not be damaged as far as possible, and cultured. The extracted tooth was washed with sterilized physiological saline and phosphate-buffered saline (PBS, Nissui), and then periodontal ligament existing in ⅓ of the tooth root at the center was scraped off with a sharp knife. The pieces of periodontal ligament were transferred to a plastic plate and minced into small fragments using a round-blade knife. Tissue fragments were left standing in a plate having a diameter of 35 mm (FALCON) and cultured in Dulbecco's modified Eagle medium (DMEM, Nissui) containing antibiotics (100 U/ml of penicillin G, 100 μg/ml of streptomycin and 250 μg/ml of gentamicin) and 10% fetal bovine serum (FBS, EQUITECH-BIO) at 37° C. under 5% CO2. […]
The PDL cells prepared in (1) were inoculated on a 24-well culture plate (FALCON) at a ratio of 5×10^3 cells/well. […] On Days 4 and 6, the cells were separated and dispersed by using PBS containing 0.08% trypsin and 0.04% ethylenediaminetetraacetic acid (EDTA), and cell number was counted by using a Coulter counter (COULTER Z1, Coulter Electronics). […]

[3] = peptide (a) 0.3 mg/ml in 1% PBS solution of sodium hyaluronate

Sequence: VPAFPRQPGTPGVASL [Peptide (a)]
- cell differentiation promoting effect (ALP activity) on OCCM30 cells (OCCM30 cells): significant cell differentiation promoting effect
- down-growth of the epithelium ([1]; peptide (a) 0.3 mg/ml in 1% PBS solution of sodium hyaluronate applied on exposed root face, versus control and hyaluronic acid groups): observed to a less extent
- deposition of cementum with Sharpey's fibers on the exposed root surface [1, 3]: deposition of cementum with Sharpey's fibers, that is, new connective tissue attachment formation, was observed
- separation between the gingiva and the tooth root [1, 3]: no such separation was observed
- bone regeneration at the periodontal defect ([1]; peptide (a) 0.3 mg/ml in 1% PBS solution of sodium hyaluronate, versus control and hyaluronic acid groups): more active than in the other two groups
- PDL cell number (cell growth promoting effect) [2]: significantly increased
